Reference: patent publication US20060035907A1, “Methods of treating abnormal cell growth using c-MET and m-TOR inhibitors” (priority 2004, published 2006)

Assays:
[1] = tested on: TPR-MET transformed BaF3 cells; test: Cell growth of TPR-MET transformed BaF3 cells (MTT assay or trypan blue exclusion); format: cell-based, murine
Description: (§1) Cells. The murine pre-B cell line BaF3 was grown in RPMI 1640 containing 10% fetal calf serum and 10% WEHI-conditioned medium as a source of murine IL-3. BaF3 cell lines transfected with a BCR/ABL, TEUABL, TEUJAK2, or TEUPDGFβR cDNA were grown in the absence of growth factors. A TPR/MET expressing BaF3 cell line was generated by transfection of an expression vector containing the TPR/MET cDNA as previously described (Sattler, M., Pride, Y. B., Ma, P., Gramlich, J. L., Chu, S. C., Quinnan, L. A., Shirazian, S., Liang, C., Podar, K., Christensen, J. G. & Salgia, R. (2003). Cancer Res, 63, 5462-9.). The number of viable cells after treatment with DMSO or PHA665752 was determined using an MTT assay (In Vitro Toxicology Assay Kit, Sigma, St. Louis, Mo.) or trypan blue exclusion.
(§2) Referring to FIG. 1, BaF3 cells lines transformed by tyrosine kinase oncogenes were used to determine cell growth (A-C) or transwell migration (D) in response to the small molecule c-MET kinase inhibitor PHA665752. A: The relative growth of BaF3 cells transformed by TPR-MET in response to different concentrations of PHA665752 was determined after 18 h (n=3). B: TPR-MET transformed BaF3 cells were either left untreated (♦) or treated (▴) with PHA665752 (1 μM) for the indicated time in the presence or absence of IL-3 (n=3). C: BaF3 cells transformed by tyrosine kinase oncogenes were treated for 18 h with PHA665752 (1 μM) (n=3). D: Cells were treated for 18 hr with the indicated dose of PHA665752 and the spontaneous transwell migration relative to DMSO-treated cells determined (n=4).
Referring to FIG. 5, the relative growth of BaF3 cells transformed by TPR-MET in response to different concentrations of rapamycin (0.01 nM to 10 nM) was determined in the presence (▴) or absence (▪) of PHA665752 (0.5 μM) after a 3 day culture (n=3).

[2] = tested on: BCR-ABL transformed BaF3 cells; test: Cell growth of BCR-ABL transformed BaF3 cells; format: cell-based, murine
Description: as §1
(§3) Referring to FIG. 1, BaF3 cells lines transformed by tyrosine kinase oncogenes were used to determine cell growth (A-C) or transwell migration (D) in response to the small molecule c-MET kinase inhibitor PHA665752. A: The relative growth of BaF3 cells transformed by TPR-MET in response to different concentrations of PHA665752 was determined after 18 h (n=3). […] D: Cells were treated for 18 hr with the indicated dose of PHA665752 and the spontaneous transwell migration relative to DMSO-treated cells determined (n=4).

[3] = tested on: TEL-JAK2 transformed BaF3 cells; test: Cell growth of TEL-JAK2 transformed BaF3 cells; format: cell-based, murine; conditions: 0.2 μM, 18 hours, FIG. 1C
Description: as §1, §3

[4] = tested on: TEL-ABL transformed BaF3 cells; test: Cell growth of TEL-ABL transformed BaF3 cells; format: cell-based, murine; conditions: 0.2 μM, 18 hours, FIG. 1C
Description: as §1, §3

[5] = tested on: TEL-PDGFFBR transformed BaF3 cells; test: Cell growth of TEL-PDGFFBR transformed BaF3 cells; format: cell-based, murine; conditions: 0.2 μM, 18 hours, FIG. 1C
Description: as §1, §3

parental BaF3 cells = test: Cell growth of IL-3 stimulated parental BaF3 cells; format: cell-based, murine; conditions: 0.2 μM, 72 hour culture (data not shown)
BaF3.TPR-MET cells = test: Transwell migration assay; format: cell-based, murine; conditions: Mus musculus, compared to DMSO treated cells, n=4, read-out: inhibition of the cell migration
Description: as §2

[6] = tested on: TPR-MET transformed BaF3 cells; test: Apoptosis assay, Annexin V / propidiumiodide staining by FACS; format: cell-based, murine; conditions: 0.2 µM, 18 h
Description: (§4) Apoptosis assays. The activity of caspase-3-was measured in cell lysates (CaspACE Assay System, Promega) and Annexin V positive staining was determined by FACS analysis (Annexin-V-Fluos Staining Kit, Roche Diagnostics) according to the manufacturer's directions in cells that were either treated with PHA665752 or the solvent DMSO.
(§5) Referring to FIG. 2, TPR-MET transformed BaF3 cells were treated for 18 h with either DMSO or the indicated amount of PHA665752 (n=3). A: Annexin V and propidiumiodide staining was determined by flow cytometry. B: Activity of caspase-3 was determined in cell lysate (n=3). C: The percentage of cells in different cell cycle phases was determined by flow cytometry after propidiumiodide staining (n =3).

caspase-3 = test: Caspase-3 activity in cell lysates; format: cell-based, murine; conditions: compared to DMSO treated cells, 18 h, n=3, p<0.03
Description: as §4, §5

[7] = tested on: TPR-MET transformed BaF3 cells; test: Cell cycle analysis (propidiumiodide, FACS); format: cell-based, murine; conditions: 18 h
Description: Cell cycle analysis. Fixed cells were stained with propidiumiodide and cell cycle parameters analyzed by FACS analysis.
as §5

[8] = tested on: tyrosine phosphorylation of cellular proteins in BaF3.TPR-MET cells; test: Immunoblotting, tyrosine phosphorylation of cellular proteins in BaF3.TPR-MET cells; format: cell-based, murine; conditions: anti-phosphotyrosine antibody (4G10), FIG. 4A
Description: (§6) Immunoblotting. Proteins were extracted from whole cells by lysing them in a Tris buffer (50 mM, pH 8.0) containing NaCl (150 mM), NP40 (1%, v/v), deoxycholic acid (0.5%, w/v), sodium dodecylsulfate (0.1%, w/v), NaF (1 mM), Na3VO4 (1 mM) and glycerol (10%, v/v) (Sigma, St. Louis, Mo.) supplemented with a protease inhibitor cocktail (complete, Roche, Indianapolis, Ind.). Polyclonal antibodies against p70-S6K (Biosource International, Camarillo, Calif.), total c-MET (C-12, Santa Cruz, Santa Cruz, Calif.), phosphatidylinositol-3′-kinase (Upstate Biotechnology, Lake Placid, N.Y.) and phosphorylated AKT[Ser473] or p70-S6K[Thr421/Ser424] (Cell Signaling, Beverly, Mass.), phospho-MET[Tyr1230/1234/1235] (Biosource International, Camarillo, Calif.) as well as phosphotyrosine (4G10, Upstate Biotechnology, Lake Placid, N.Y.) were used for immunoblotting.
(§7) Referring to FIG. 4, phosphorylation of cellular proteins was determined by immunoblotting in whole cell lysate as indicated using anti-phosphotyrosine antibody (4G10) (A), total c-MET antibody, anti-pY1230/1234/1235-MET antibody (recognizing the corresponding pY361/365/366 sites in TPR-MET), anti-pY1349-MET (recognizing the pY480 site in TPR-MET) and anti-pY1365-MET (recognizing the pY496 site in TPR-MET) phospho-antobodies (B), and phospho-AKT and phospho-S6K antibodies (C). […]

[9] = tested on: tyrosine phosphorylation of cellular proteins in BCR-ABL transformed BaF3 cells; test: Immunoblotting, tyrosine phosphorylation of cellular proteins in BCR-ABL transformed BaF3 cells; format: cell-based, murine; conditions: BCR-ABL transformed BaF3 cells (data not shown)
Description: as §6

TPR-MET = biological target: T1, TPR-MET (Homo sapiens, UniProt P08581); test: Immunoblotting, TPR-MET autophosphorylation with phosphospecific antibodies; format: cell-based; conditions: TPR-MET transformed BaF3 cells, FIG. 4B
T1 construct: TPR portion (fusion partner, nucleoprotein TPR; human entry would be P12270); expressed in transfected cells; host or cells: BaF3 (murine pre-B cell line); the other entry of the earlier key: TPR (P12270, Nucleoprotein TPR)
Description: as §6, §7

AKT[Ser473] = test: Immunoblotting, phospho-AKT[Ser473] in TPR-MET transformed BaF3 cells; format: cell-based, murine; conditions: FIG. 4C
Description: as §6, §7

p70-S6K[Thr421/Ser424] = test: Immunoblotting, phospho-p70-S6K[Thr421/Ser424] in TPR-MET transformed BaF3 cells; format: cell-based, murine; conditions: FIG. 4C
Description: as §6, §7

T1 sequence (P08581 with tags, fused parts or gaps): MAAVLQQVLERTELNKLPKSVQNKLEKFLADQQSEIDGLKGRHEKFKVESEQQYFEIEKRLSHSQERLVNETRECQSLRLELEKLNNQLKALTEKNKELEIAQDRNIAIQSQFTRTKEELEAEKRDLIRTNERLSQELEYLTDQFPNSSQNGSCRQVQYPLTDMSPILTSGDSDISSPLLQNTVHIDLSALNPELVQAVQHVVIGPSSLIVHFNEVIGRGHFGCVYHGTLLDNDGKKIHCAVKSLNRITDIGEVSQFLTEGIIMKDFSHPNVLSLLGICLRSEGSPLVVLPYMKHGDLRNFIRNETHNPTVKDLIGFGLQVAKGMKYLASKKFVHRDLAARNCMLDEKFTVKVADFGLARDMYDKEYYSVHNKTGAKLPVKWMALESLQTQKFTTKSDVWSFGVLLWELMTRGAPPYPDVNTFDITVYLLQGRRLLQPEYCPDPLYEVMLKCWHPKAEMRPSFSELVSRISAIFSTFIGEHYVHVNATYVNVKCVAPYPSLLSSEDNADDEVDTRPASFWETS

SMILES: Cc1[nH]c(/C=C2\C(=O)Nc3ccc(S(=O)(=O)Cc4c(Cl)cccc4Cl)cc32)c(C)c1C(=O)N1CCC[C@@H]1CN1CCCC1 [PHA665752, (3Z)-5-[(2,6-dichlorobenzyl)sulfonyl]-3-[(3,5-dimethyl-4-{[(2R)-2-(pyrrolidin-1-ylmethyl)pyrrolidin-1-yl]carbonyl}-1H-pyrrol-2-yl)methylene]-1,3-dihydro-2H-indol-2-one]
- effect on cell growth in the absence of IL-3 ([1]; BaF3.TPR-MET, absence of IL-3, 72 hour culture, PHA665752 (1 μM) per FIG. 1B legend): completely blocked cell growth
- IC50 ([1]; Mus musculus, BaF3.TPR-MET cells, after 18 h, FIG. 1A, read-out: IC50, inhibition of cell growth): < 60 nM
- effect on cell growth in the presence of IL-3 ([1]; TPR-MET transformed cells, presence of IL-3, 72 hour culture, PHA665752 (1 μM) per FIG. 1B legend): only little effect on cell growth
- inhibition of cell growth ([2]; 0.2 μM, 18 hours, BCR-ABL transformed BaF3 cells, FIG. 1C): did not inhibit cell growth
- effect on cell growth in the presence of IL-3 ([2]; BCR-ABL transformed cells, control experiment, presence of IL-3, 72 hour culture, FIG. 1B): only little effect on cell growth
- inhibition of cell growth [3]: did not inhibit cell growth
- inhibition of cell growth [4]: did not inhibit cell growth
- inhibition of cell growth [5]: did not inhibit cell growth
- growth inhibitory effect (parental BaF3 cells): did not observe a significant growth inhibitory effect
- inhibition at 0.2 µM (BaF3.TPR-MET cells): 92.5 ± 3%
- cells in early apoptosis (Annexin V positive) [6]: 13.9±1.0%
- cells in late apoptosis (Annexin V plus propidiumiodide positive) [6]: 19.2±1.8%
- number of apoptotic cells (of total population) ([6]; control cells 5%): 33.1%
- increase in caspase-3 activity (caspase-3): 3.5±0.7 fold
- percentage of cells in G2/M-phase ([7]; 0.2 μM, DMSO 12.2%): 5.5%
- percentage of cells in G1-phase ([7]; 0.2 μM, DMSO 42.4%): 77.0%
- percentage of cells in S-phase ([7]; 0.2 μM, DMSO 45.4%): 17.5%
- cells in sub-G1-phase ([7]; consistent with apoptotic cells): increase of cells in sub-G1-phase
- tyrosine phosphorylation of cellular proteins [8]: reduced tyrosine phosphorylation of cellular proteins in a dose dependent manner
- tyrosine phosphorylation of cellular proteins [9]: did not alter tyrosine phosphorylation of cellular proteins
- autophosphorylation in the catalytic tyrosine kinase domain at Tyr361/365/366, Tyr480 and Tyr496 (TPR-MET): inhibits autophosphorylation
- serine phosphorylation of AKT[Ser473] (AKT[Ser473]): reduced serine phosphorylation
- phosphorylation of the mTOR substrate p70-S6K[Thr421/Ser424] (p70-S6K[Thr421/Ser424]): reduced phosphorylation
